We go through 3 molecules from ChEMBL document CHEMBL3627608, “Crystal structures of human RIP2 kinase catalytic domain complexed with ATP-competitive inhibitors: Foundations for understanding inhibitor selectivity” (Bioorg Med Chem, 2015).

For assay [1], the target named is T1, Aurora kinase A (Homo sapiens) (UniProt O14965).
T1 sequence (whole entry): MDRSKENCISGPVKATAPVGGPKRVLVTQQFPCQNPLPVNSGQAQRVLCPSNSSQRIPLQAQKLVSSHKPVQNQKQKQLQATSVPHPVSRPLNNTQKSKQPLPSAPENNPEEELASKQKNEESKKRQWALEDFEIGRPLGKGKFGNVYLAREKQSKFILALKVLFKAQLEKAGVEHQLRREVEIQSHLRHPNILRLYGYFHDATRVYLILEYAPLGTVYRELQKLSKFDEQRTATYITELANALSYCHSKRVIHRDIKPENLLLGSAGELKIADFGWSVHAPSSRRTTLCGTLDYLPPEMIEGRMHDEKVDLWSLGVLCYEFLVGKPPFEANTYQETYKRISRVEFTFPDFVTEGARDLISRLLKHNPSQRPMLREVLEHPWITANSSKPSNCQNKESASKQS
The assay is described as follows: Inhibition of Aurora A (unknown origin) at 10 uM after 120 mins P33 radiolabeled kinase activity assay.

In assay [2] the target is Myosin light chain kinase 2, skeletal/cardiac muscle (Homo sapiens) (UniProt Q9H1R3). Description: Inhibition of MLCK2 (unknown origin) at 10 uM after 120 mins P33 radiolabeled kinase activity assay.
Sequence of Myosin light chain kinase 2, skeletal/cardiac muscle (Homo sapiens) (Q9H1R3 whole entry): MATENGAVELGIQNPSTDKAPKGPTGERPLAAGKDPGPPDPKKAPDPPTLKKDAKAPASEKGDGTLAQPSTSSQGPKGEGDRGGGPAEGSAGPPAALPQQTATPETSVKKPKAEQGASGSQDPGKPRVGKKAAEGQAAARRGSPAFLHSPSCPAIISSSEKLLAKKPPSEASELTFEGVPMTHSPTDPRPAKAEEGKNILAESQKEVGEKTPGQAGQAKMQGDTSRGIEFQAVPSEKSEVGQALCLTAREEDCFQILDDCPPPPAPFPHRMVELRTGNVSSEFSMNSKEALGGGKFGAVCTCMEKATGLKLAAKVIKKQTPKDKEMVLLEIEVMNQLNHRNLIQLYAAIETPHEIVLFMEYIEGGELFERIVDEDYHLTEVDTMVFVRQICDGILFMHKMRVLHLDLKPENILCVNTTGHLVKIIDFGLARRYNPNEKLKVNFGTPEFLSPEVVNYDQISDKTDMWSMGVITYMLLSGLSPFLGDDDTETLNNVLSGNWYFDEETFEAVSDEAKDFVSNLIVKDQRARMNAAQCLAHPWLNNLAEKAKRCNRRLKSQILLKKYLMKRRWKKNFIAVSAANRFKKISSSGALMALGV
For assay [3], the target named is T2, Serine/threonine-protein kinase Sgk3 (Homo sapiens) (UniProt Q96BR1).
T2 sequence (whole entry): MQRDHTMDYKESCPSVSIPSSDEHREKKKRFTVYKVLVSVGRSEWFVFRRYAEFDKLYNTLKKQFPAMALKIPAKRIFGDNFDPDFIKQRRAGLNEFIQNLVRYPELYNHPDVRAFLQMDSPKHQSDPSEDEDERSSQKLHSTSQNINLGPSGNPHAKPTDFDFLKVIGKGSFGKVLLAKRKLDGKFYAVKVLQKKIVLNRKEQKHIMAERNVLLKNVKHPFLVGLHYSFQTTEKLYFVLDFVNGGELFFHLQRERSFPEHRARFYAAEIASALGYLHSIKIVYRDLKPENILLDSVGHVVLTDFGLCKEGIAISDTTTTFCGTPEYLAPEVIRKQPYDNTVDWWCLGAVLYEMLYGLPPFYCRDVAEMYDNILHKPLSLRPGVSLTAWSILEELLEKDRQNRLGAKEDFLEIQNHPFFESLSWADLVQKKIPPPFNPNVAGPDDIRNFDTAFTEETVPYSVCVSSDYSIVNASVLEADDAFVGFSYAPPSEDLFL
The assay is described as follows: Inhibition of SGK3 (unknown origin) at 10 uM after 120 mins P33 radiolabeled kinase activity assay.

For assay [4], the target named is Dual specificity mitogen-activated protein kinase kinase 2 (Homo sapiens) (UniProt P36507). The assay is described as follows: Inhibition of MEK2 (unknown origin) at 10 uM after 120 mins P33 radiolabeled kinase activity assay.
Sequence of Dual specificity mitogen-activated protein kinase kinase 2 (Homo sapiens) (P36507 whole entry): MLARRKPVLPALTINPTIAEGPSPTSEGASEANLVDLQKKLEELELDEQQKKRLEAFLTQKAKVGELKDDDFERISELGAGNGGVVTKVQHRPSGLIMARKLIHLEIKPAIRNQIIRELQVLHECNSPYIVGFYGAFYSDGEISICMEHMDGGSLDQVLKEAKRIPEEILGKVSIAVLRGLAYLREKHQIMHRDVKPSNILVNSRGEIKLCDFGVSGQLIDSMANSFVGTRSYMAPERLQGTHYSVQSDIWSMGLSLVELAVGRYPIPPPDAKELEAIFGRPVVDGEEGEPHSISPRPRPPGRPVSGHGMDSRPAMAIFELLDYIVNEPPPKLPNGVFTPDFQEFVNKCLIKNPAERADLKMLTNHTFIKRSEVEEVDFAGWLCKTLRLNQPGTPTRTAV
Assay [5] deals with Serine/threonine-protein kinase MARK1 (Homo sapiens) (UniProt Q9P0L2). Description: Inhibition of MARK1 (unknown origin) at 10 uM after 120 mins P33 radiolabeled kinase activity assay.
Sequence of Serine/threonine-protein kinase MARK1 (Homo sapiens) (Q9P0L2 whole entry, looked up): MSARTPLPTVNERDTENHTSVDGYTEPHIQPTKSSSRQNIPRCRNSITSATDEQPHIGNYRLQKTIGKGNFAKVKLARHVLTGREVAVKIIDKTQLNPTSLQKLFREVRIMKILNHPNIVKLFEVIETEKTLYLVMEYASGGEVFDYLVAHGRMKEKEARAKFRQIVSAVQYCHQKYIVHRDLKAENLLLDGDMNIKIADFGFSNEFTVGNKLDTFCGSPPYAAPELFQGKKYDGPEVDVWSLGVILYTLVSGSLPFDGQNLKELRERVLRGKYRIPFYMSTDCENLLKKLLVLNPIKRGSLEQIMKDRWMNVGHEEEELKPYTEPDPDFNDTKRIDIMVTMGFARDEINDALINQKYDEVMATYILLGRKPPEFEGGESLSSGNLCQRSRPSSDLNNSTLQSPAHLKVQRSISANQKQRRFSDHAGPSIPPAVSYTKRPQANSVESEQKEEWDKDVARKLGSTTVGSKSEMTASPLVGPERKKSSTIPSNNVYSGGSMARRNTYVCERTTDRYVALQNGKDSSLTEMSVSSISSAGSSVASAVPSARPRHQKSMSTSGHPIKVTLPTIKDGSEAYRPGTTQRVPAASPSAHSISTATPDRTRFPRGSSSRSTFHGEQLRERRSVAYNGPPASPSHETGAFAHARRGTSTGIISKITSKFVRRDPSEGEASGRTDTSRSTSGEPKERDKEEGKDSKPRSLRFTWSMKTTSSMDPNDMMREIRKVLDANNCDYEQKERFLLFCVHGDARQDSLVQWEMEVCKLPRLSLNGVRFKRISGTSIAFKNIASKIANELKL
Assay [6] concerns the target Hepatocyte growth factor receptor (Homo sapiens) (UniProt P08581). The assay is described as follows: Inhibition of c-MET (unknown origin) at 10 uM after 120 mins P33 radiolabeled kinase activity assay.
Assay [7] concerns the target MAP/microtubule affinity-regulating kinase 3 (Homo sapiens) (UniProt P27448). Description: Inhibition of MARK3 (unknown origin) at 10 uM after 120 mins P33 radiolabeled kinase activity assay.
Assay [8] concerns the target T3, MAP/microtubule affinity-regulating kinase 4 (Homo sapiens) (UniProt Q96L34).
T3 sequence (whole entry): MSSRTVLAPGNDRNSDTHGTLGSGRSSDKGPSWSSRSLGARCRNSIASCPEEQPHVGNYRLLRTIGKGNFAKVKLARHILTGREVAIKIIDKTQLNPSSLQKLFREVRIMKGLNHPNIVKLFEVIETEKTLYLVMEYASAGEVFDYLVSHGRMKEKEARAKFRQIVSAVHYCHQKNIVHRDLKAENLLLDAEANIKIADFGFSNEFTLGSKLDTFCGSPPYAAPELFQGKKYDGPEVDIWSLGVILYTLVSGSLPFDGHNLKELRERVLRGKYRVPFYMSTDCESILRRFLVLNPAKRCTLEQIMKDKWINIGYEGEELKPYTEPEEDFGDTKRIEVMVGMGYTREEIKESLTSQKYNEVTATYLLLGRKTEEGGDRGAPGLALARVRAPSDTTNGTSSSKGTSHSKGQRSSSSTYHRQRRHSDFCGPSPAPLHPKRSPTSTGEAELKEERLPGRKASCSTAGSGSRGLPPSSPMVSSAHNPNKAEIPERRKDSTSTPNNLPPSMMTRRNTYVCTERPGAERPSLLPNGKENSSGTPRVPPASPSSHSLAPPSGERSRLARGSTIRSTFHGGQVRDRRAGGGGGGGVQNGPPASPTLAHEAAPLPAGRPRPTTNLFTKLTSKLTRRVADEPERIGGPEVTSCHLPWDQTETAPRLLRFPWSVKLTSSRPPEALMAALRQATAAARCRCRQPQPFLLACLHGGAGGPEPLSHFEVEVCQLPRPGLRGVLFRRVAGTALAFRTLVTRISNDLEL
The assay is described as follows: Inhibition of MARK4 (unknown origin) at 10 uM after 120 mins P33 radiolabeled kinase activity assay.

Assay [9] has as its target Cyclin-dependent kinase 1/cyclin B1 (Homo sapiens) (UniProt P06493+P14635). Description: Inhibition of CDK1/cyclin B (unknown origin) at 10 uM after 120 mins P33 radiolabeled kinase activity assay. The class given is protein-complex assay.

Sequence of Hepatocyte growth factor receptor (Homo sapiens) (P08581 whole entry): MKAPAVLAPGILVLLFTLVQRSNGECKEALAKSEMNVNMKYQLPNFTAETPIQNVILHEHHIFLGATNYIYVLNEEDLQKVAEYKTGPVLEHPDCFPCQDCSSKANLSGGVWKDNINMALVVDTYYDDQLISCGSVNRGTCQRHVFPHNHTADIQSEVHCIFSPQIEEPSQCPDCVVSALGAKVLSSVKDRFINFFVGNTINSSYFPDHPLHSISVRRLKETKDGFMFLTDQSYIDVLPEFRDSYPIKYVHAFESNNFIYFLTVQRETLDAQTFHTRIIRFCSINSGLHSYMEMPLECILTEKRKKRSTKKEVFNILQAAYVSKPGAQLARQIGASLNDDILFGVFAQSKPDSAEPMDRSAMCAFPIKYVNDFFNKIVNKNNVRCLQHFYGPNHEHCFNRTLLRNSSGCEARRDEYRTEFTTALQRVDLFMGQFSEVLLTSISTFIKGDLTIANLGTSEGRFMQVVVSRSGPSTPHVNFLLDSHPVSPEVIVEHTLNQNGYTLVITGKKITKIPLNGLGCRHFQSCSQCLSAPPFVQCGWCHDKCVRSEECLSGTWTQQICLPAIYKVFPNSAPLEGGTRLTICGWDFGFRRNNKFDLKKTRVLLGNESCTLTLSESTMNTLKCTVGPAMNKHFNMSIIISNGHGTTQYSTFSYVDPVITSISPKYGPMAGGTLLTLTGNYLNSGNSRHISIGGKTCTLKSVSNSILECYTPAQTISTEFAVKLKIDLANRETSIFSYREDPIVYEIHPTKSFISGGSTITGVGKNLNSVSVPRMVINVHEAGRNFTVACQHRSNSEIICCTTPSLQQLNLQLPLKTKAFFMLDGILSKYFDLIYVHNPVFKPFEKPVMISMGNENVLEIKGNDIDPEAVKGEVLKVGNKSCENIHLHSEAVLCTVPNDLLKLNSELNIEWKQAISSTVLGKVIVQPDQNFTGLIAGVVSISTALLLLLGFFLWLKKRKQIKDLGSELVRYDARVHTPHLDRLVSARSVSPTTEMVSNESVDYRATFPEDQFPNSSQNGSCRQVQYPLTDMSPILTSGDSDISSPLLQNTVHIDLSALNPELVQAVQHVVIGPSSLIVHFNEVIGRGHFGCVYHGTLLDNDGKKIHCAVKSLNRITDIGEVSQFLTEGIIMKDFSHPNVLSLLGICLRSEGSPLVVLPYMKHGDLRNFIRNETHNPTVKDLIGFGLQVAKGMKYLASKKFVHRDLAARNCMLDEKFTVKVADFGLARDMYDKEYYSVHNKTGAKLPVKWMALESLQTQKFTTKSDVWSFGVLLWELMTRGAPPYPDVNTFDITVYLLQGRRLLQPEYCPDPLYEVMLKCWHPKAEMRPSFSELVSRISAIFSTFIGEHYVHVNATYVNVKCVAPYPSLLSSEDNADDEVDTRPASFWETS
Sequence of MAP/microtubule affinity-regulating kinase 3 (Homo sapiens) (P27448 whole entry, looked up): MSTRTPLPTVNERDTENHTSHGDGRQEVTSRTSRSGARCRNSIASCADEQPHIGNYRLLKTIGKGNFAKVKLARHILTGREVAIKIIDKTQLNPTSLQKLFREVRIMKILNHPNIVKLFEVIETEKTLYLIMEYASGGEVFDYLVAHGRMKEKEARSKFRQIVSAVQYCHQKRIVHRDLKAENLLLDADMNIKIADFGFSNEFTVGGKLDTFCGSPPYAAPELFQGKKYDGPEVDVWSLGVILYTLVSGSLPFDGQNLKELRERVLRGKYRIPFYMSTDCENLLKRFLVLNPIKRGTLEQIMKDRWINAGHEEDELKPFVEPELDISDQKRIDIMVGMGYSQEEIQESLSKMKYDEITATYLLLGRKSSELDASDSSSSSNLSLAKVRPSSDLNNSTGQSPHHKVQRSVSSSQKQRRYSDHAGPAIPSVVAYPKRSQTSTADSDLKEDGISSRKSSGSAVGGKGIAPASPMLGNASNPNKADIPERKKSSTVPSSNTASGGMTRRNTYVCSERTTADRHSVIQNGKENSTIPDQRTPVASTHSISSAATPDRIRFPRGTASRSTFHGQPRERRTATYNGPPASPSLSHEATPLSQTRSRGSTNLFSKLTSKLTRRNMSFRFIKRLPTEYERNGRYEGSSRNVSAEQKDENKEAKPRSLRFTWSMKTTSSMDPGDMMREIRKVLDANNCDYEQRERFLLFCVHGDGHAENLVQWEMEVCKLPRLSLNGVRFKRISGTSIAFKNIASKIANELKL
Sequence of Cyclin-dependent kinase 1/cyclin B1 (Homo sapiens) (P06493 whole entry, looked up): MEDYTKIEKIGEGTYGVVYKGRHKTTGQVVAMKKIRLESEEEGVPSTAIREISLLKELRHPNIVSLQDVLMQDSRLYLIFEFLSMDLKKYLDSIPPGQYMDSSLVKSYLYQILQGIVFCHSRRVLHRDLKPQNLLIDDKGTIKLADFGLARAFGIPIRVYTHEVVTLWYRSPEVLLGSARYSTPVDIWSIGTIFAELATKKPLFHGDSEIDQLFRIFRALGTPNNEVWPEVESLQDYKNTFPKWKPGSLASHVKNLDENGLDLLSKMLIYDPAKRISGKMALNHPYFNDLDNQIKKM
Sequence of Cyclin-dependent kinase 1/cyclin B1 (Homo sapiens) (P14635 whole entry, looked up): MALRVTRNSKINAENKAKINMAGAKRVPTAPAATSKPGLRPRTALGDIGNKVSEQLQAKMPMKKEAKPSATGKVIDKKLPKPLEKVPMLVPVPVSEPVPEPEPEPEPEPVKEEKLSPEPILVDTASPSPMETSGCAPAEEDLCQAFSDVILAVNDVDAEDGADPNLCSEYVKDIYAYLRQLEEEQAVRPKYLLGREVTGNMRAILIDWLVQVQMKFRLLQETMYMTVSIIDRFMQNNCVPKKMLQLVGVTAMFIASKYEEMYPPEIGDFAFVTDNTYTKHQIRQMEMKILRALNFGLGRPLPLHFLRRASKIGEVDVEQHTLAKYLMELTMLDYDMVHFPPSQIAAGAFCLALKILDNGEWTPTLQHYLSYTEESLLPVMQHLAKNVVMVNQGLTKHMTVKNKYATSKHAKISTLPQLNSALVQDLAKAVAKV

In general, inhibition refers to the relative decrease from the control value, in per cent. Turning to `CS(=O)(=O)c1cccc(Nc2nccc(-c3sc(N4CCOCC4)nc3-c3cccc(NS(=O)(=O)c4c(F)cccc4F)c3)n2)c1`, the inhibition in assay [1] was found to be 83.4%; in assay [2] it was 30.2%; in [3], 3.98%; in [4], 79%; in assay [5] it was 10.3%; in assay [6], 16.8%. For the same molecule, the inhibition in assay [7] worked out at 4.8%; in assay [8], 39.1%; in assay [9], 70.8%.

For `CC(C)(C)c1cc(NC(=O)Nc2ccc(Oc3ccncc3)cc2)no1`, the inhibition worked out at 48.4% in assay [1]; 53.2% in [2]; 10% in assay [3]; 52.5% in assay [4]; 4.99% in assay [5]; 92.4% in assay [6]. Also, the inhibition in assay [7] was -1.36%; in assay [8] it was 13.8%; in assay [9] it was 35.1%.

Consider `COCCNC(=O)c1ccc2c(c1)nc(-c1cnc(-c3ccc(Cl)cc3)[nH]1)n2CCOC`, for which the inhibition in assay [1] is 13.9%; in assay [2], 12.1%; in [3] it was 5.07%; in [4], -5.83%; in assay [5], 3.28%; in [6], 10.9%. In addition, the inhibition is -3.77% in assay [7], 12.5% in assay [8] and -3.76% in assay [9].
